Results from patent publication US20090068286A1, “METHOD OF TREATING CANCER BY ADMINISTRATION OF 5-SUBSTITUTED NUCLEOSIDES” (RESprotect, GmbH, priority 2007, published 2009).

Columns and labels:
[1] = system: DT-diaphorase (DT-D); assay: DT-diaphorase activity in cell extracts (dicoumarol-inhibitable NAD(P)H: dichlorophenol indophenol reductase); type: cell-based
Experimental: The measurement of the DT-diaphorase (DT-D) was effected as a dicoumarol-inhibitable NAD(P)H: dichlorophenol indophenol reductase, as described in Hodnick et al., Anal. Biochem 252(1), 1997, 165-168 (incorporated by reference herein in its entirety). Extracts were tested of a similar number of cells which had been treated with DOX±BVDU for DT-D activity.

[2] = system: Yoshida AH13r hepatoma cells; assay: Growth of s.c. Yoshida AH13r hepatoma tumors in SD-rats; type: in vivo, rat
Experimental: Ten SD-rats per treatment group were given a single s.c. injection of ascites Yoshida AH13r hepatoma cells. Five to 7 days after tumor application, the growth of the resulting tumors (at the injection site) was suppressed by i.p. treatment of the animals with cisplatin, doxorubicin or cyclophosphamide, or by additional oral treatment with 15 mg/kg BVDU (15 times within 3 weeks).

[3] = system: AH13r sarcoma cells; assay: Number of AH13r cells under cytostatic ± BVDU and in the recovery phase; type: cell-based, rat
Excerpt: AH13r cells were subjected to increasing doses of the cytostatic mitomycin C (MMC). […] This inhibitory effect was maintained even after discontinuation of the cytostatic in the next cycle, in the so-called recovery phase. The cells without MMC and BVDU continued to grow without inhibition.

[4] = system: AH13r tumor cells; assay: Hoechst 33258/propidium iodide (Hopi) double coloration for apoptosis; type: cell-based, rat; conditions: co-treatment of cytostatic with BVDU
Excerpt: The indication that the reduction in cell number is based on apoptosis, was detected by means of Hoechst 33258/propidium iodide (Hopi) double coloration.

## O=c1[nH]c(=O)n([C@H]2C[C@H](O)[C@@H](CO)O2)cc1/C=C/Br [BVDU, (E)-5-(2-bromovinyl)-2′-deoxyuridine]
[1]; BVDU alone
  DT-D activity: increases the DT-D activity constantly, but in part only weakly
[1]; cells treated with DOX±BVDU
  DT-D activity relative to control cells or cells treated solely with DOX: approximately threefold
[2]; BVDU 50 mg/kg given only on the same day as cisplatin, no recovery phase
  Effect on tumor size: only weak
[2]; BVDU 15 times alone in the recovery phase, one time together with cyclophosphamide
  Effect on tumor size: strong effect
[2]; BVDU alone or in combination with DOX, recovery phase 6× one day
  Effect on tumor size: strong effect
[2]; BVDU given alone, oral
  Influence on the growth of rat tumors: no influence
[2]; BVDU with CIS, recovery phase 4×3 or 2 days
  Effect on tumor size: very strong
[3]; BVDU given alone
  Toxic effect on AH13r cells: no toxic effect
[3]; after MMC+BVDU, cytostatic discontinued, cells continued to receive BVDU
  Cell growth in the recovery phase: greatly inhibited in their growth
[4]
  Apoptosis (HOPI double coloration): promotes apoptosis
